We go through one compound from US20250263370A1 (Tay Therapeutics Limited, priority 2022, published 2025).

In brackets after ≈: the same amount, converted by molar mass.

For one series, the target named is BRD4 BD1 (Homo sapiens (Human), UniProt O60885). The series can be described thus: NanoBRET bromodomain assay, NanoLuc-BRD4-BD1 fusion in HEK293 cells. In kind it is cell-based. Conditions: top concentration 10 μM. For orientation: In BRET a luciferase serves as donor, and the signal depends on an acceptor being close.
Series [1] can be described thus: Plasma stability assay, rat plasma. In kind it is in vitro ADME. The following applies: Method 1 (5 μM). The method in brief:
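Compound at 5 μM final (0.5% DMSO) in one protocol or 10 μM (2% DMSO) in the other, incubated in plasma at 37° C.; samples taken 0–120 min and quenched with cold acetonitrile plus internal standard. LC-MS/MS gives percent remaining relative to the 0-min sample.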

Series [2] is described as follows: Plasma stability assay, mouse plasma. In kind it is in vitro ADME. The following applies: Method 1 (5 μM). The procedure:
(§1) From stock solution of compound in 10 mM DMSO, a working solution of 1 mM is prepared by diluting the compound in DMSO. To 398 μL of plasma pre-warmed at 37° C. for 15 minutes), 2 μL of working solution of compound is added, resulting in a final concentration of 5 μM (0.5% DMSO) for the compound. The sample is then incubated at 37° C. Aliquot is withdrawn at specified time-points (0, 15, 30, 60 and 120 mins). The reaction is stopped by addition of 450 μL cold acetonitrile containing internal standard (IS). […] Aliquots of the supernatant is analysed using LC-MS/MS. The percent remaining of the compound at each time point is calculated with respect to the control sample (0 min time-point).
(§2) A working solution of compound (500 μM) is prepared in DMSO (100%). To 735 μL of plasma, 15 μL of working solution of compound is added—resulting in a final concentration of 10 μM (2% DMSO) for the compound. The sample is then incubated at 37° C. Aliquot is withdrawn at time-points—0, 15, 30, 60, 90 and 120 mins. The reaction is stopped by using chilled acetonitrile containing internal standard (IS). The samples are centrifuged and the supernatants analyzed using LC-MS/MS. The percent remaining of the compound at each time point is calculated with respect to the control sample (0 min time-point).

Series [3] can be described thus: Plasma stability assay, human plasma. The format is in vitro ADME. The following applies: Method 1 (5 μM). The procedure: as §1, §2
A short description of series [4]: Intrinsic clearance in liver microsomes, mouse. Conditions: pH 7.4, Method 1, read-out: Half-Life (T1/2) (min), Mouse. In kind it is in vitro ADME. As for the experimental part: From stock solution of compound on 10 mM DMSO, a working solution of 0.1 mM is prepared by diluting the compound in DMSO. 6.25 μL of a 20 mg/mL solution of microsomes in PBS pH 7.4 buffer is added to 216.25 μL PBS pH 7.4 buffer (final microsome concentration—0.5 mg/mL). 25 μL of 10 mM solution of NADPH in PBS pH 7.4 buffer is added to the incubations (final NADPH concentration—1 mM). The mixture is pre-warmed to 37° C. for 10 minutes. 2.5 μL of test compound working solution is added (final compound concentration—1 μM with 1% DMSO). Aliquots of 30 μL are taken from the reaction solution at 0.5, 5, 15, 30 and 60 minutes. The reaction was stopped by the addition of 5 volumes of cold acetonitrile with IS (100 nM alprazolam, 200 nM caffeine and 100 nM tolbutamide). Samples were centrifuged at 3, 220 g for 40 minutes. Aliquots of 100 μL of the supernatant are mixed with 100 μL of ultra-pure H2O and used for LC-MS/MS analysis. The percent compound remaining at each time point is calculated with respect to that of the 0.5 min sample. The data are analysed to calculate half-life. Control experiments are run without NADPH and blank samples are prepared using DMSO without the test compound.
A 50 mM stock solution (in DMSO) is prepared for the compound. From the stock solution, a working solution of 0.5 mM is prepared by diluting the compound in DMSO. This concentration of working solution is prepared considering a final concentration of 1 uM with 0.1% DMSO. The compound (1 μL of working solution) is spiked in PBS with pH 7.4 ([…]) at a concentration of 1 μM. Subsequently, 110 μL of 10 mM NADPH is added (as a co-factor). The sample is incubated at 37° C. for 15 min. Following this, pre-warmed liver microsomes (27.5 μL; final protein conc. 0.5 mg/mL) are added. The samples are then incubated at 37° C. Aliquots of samples are withdrawn at 0, 5, 15, 30, 45 and 60 min. The reaction is stopped by using chilled acetonitrile containing internal standard. The samples are centrifuged, and the supernatants analysed by LC-MS/MS. The percent compound remaining at each time point is calculated with respect to that of the 0 min sample. The data are then analysed to calculate half-life and intrinsic clearance (CLint). Control experiments are run without NADPH and blank samples are prepared using DMSO without the test compound.
(In general: Liver microsomes are vesicles of endoplasmic reticulum, rich in cytochrome P450 enzymes.)

Series [5] in a line: Intrinsic clearance in liver microsomes, rat. The format is in vitro ADME. The following applies: rat, liver microsomes, pH 7.4, rat liver microsomes, Method 1; read-out: Half-Life (T1/2) (min), Rat. The essentials: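 Compound at 1 μM (0.1–1% DMSO) incubated at 37 °C with mouse or rat liver microsomes (0.5 mg/mL protein) and 1 mM NADPH in PBS pH 7.4; samples taken up to 60 min and quenched in cold acetonitrile. LC-MS/MS of percent remaining gave half-life and CLint; no-NADPH controls run.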

Series [6] is described as follows: Thermodynamic solubility in FaSSIF pH 6.5 buffer. The format is physicochemical. Conditions: FaSSIF buffer, 25 °C, pH 6.5, fassif, thermodynamic from solid, Method 1 (UV-vis, 25° C., 24 hrs). The procedure:
FaSSIF v2 buffer is freshly prepared prior to use according to the suppliers' instructions and the pH adjusted to 6.5 using 1 M NaOH or 1 M HCl as required. From 1 mM working solution of test compound in DMSO, the λmax of the test compound is determined by scanning from 200 nm to 700 nm, in 1 nm steps with an EPOCH UV/Visible spectrophotometer (Biotek Instruments Inc.). A 12-point standard curve of compound concentration versus absorption at λmax is generated via two-fold serial dilutions of the 1 mM working solution with DMSO. Approximately 1 mg of test compound is accurately weighed into an Eppendorf tube and the appropriate volume of FaSSIF buffer is added to make a nominal concentration of 1 mg/mL. The tube is incubated on a rotator at 20 rpm, 25° C. for 24 hrs. Samples are then filtered using 0.45 μm filters (Sartorious, CAT #1776C) and the filtrate subjected to UV-vis spectroscopy analysis. The absorption at λmax is compared to the standard curve to determine the concentration of compound in solution after 24 hours.
FaSSIF buffer was prepared according to the suppliers' instructions and the pH adjusted to 6.5 using 1 M NaOH or 1 M HCl as required. […] A stir stick was added to each vial and vials sealed with a moulded PTDE/SIL 96-well plate cover. The plate was shaken at 25° C. at 1,100 rpm using an Eppendorf Thermomixer Comfort plate shaker. The plates were filtered using a vacuum manifold and diluted with a mixture of H2O and acetonitrile containing internal standard. The concentration of the test compound in the filtrate was determined by LCMS analysis with reference to the internal standards to determine the solubility in the buffer.

The nature of series [7]: Sprague-Dawley rat pharmacokinetics, IV and PO cassette dosing. The format is in vivo. The method in brief: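 Male Sprague-Dawley rats (2 per arm) given up to 5 compounds in cassette, 1 mg/kg IV and 5 mg/kg PO, formulated in 5% DMSO/40% PEG-400/55% water. Plasma from serial blood samples was acetonitrile-precipitated and analysed by LC/MS/MS against matrix-matched standard curves.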

In a further series the target is BRD4 BD2 (Homo sapiens (Human), UniProt O60885). The series can be described thus: NanoBRET bromodomain assay, NanoLuc-BRD4-BD2 fusion in HEK293 cells.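 Note: tracer displacement BRET read in transfected cells after 2 h compound exposure at 37 °C, signal in milliBRET units corrected against no-tracer background wells.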

Turning to `CNC(=O)c1[nH]c(C(=O)N[C@H]2CC[C@H](O)CC2)cc1OC(C)c1ccccc1` (single isomer, unassigned) [Example 97, N^5-(trans-4-hydroxycyclohexyl)-N^2-methyl-3-(1-phenylethoxy)-1H-pyrrole-2,5-dicarboxamide], the concentration for half-maximal inhibition (IC50) was at least 10000 nM on BRD4 BD1 and 50 to 200 nM against BRD4 BD2 (BRD4 BD2 (IC50), NanoBRET, HEK293 cells, top concentration 10 μM). Moreover, the “Plasma Stability (% remaining at 120 minutes), Rat” value in series [1] is above 99%. For the same compound, in series [2], the “Plasma Stability (% remaining at 120 minutes), Mouse” value turned out to be 93%. The “Plasma Stability (% remaining at 120 minutes), Human” value in [3] is above 99%. The half-life at 1 μM is 70 min in [4] and above 60 min in series [5]. Also, the thermodynamic solubility at 24 h in series [6] turned out to be 418 µM (≈ 161 µg/mL). Also, the “PO F” value in series [7] (PO 5 mg/kg, Method 1) worked out at 60%. In series [7] (male, Sprague-Dawley, rat, plasma, iv, 1 mg/kg, IV 1 mg/kg, Method 1, read-out: IV T1/2 (converted)), the half-life was 1.4 h. Further, the Fold selectivity result on BRD4 BD2 (IC50 for BRD4 BD1 divided by IC50 for BRD4 BD2, qualitative if an IC50 is at the upper limit) is “XX (Fold >50 and ≤200)”.

A word on the IC50: it is the concentration that gives 50% inhibition. Read a high IC50 as weaker potency in that assay. As usually defined, the thermodynamic solubility is the concentration in solution at equilibrium with solid.
